Earlier results on one compound are cited in patent US10881104B2, “Arthropod control composition, formulation, and method” (priority 2013, dated 2021).

This data set relates to D. variabilis. To be noted: unformulated; 2 h after application.

Take `CCCCCCCCCC(C)=O` [Formulation 2-undecanone, 2-undecanone]: the repellency is 74%.
